Source: patent publication US8937062B2, “Compositions and methods for treating, reducing, ameliorating, or preventing infections caused by antibacterial drug-resistant bacteria” (Bausch & Lomb Incorporated, priority 2007, dated 2015)
Converted amounts (≈) assume the structure as drawn.

Experiments:
[1] = tested on: APC-resistant Haemophilus influenza.; experiment: MIC90, agar plate dilution method (NCCLS), Table 2; assay type: cell-based; details: APC-resistant Haemophilus influenza., 10 isolates
Description: (§1) The MIC90 values for this test were determined by the agar plate dilution method according to the National Committee for Clinical Laboratory Standards (“NCCLS”).

[2] = tested on: GM-resistant P. aeruginosa; experiment: MIC90, agar plate dilution method (NCCLS), Table 2; assay type: cell-based; details: 10 isolates
Description: as §1

GM-resistant S. aureus = experiment: MIC90, agar plate dilution method (NCCLS), Table 2; assay type: cell-based; details: 10 isolates
Description: as §1

[3] = tested on: OFLX-resistant Enterobacteriaceae; experiment: MIC90, agar plate dilution method (NCCLS), Table 2; assay type: cell-based; details: OFLX-resistant Enterobacteriaceae, 10 isolates
Description: as §1

OFLX-resistant S. aureus = experiment: MIC90, agar plate dilution method (NCCLS), Table 2; assay type: cell-based; details: 10 isolates
Description: as §1

[4] = tested on: PCG-resistant S. pneumoniae; experiment: MIC90, agar plate dilution method (NCCLS), Table 2; assay type: cell-based; details: 10 isolates
Description: as §1

[5] = tested on: methicillin-resistant S. aureus; experiment: MIC90, Japanese Society of Chemotherapy guidelines (1993), Table 3; assay type: cell-based
Description: (§2) In a second test, compounds having Formulae IV and V, their racemic mixture, and OFLX were tested in vitro against S. aureus strains that are resistant to methicillin or penicillin. The test was conducted according to the guidelines of the Japanese Society of Chemotherapy (1993).

[6] = tested on: penicillin-resistant S. aureus; experiment: as above; assay type: cell-based
Description: as §2

[7] = tested on: E. cloacae, extended-spectrum β-lactamase positive; experiment: MIC90, broth microdilution (CLSI M7-A7), Table 4; assay type: cell-based; details: 15 isolates
Description: (§3) The MIC90 values were determined according to the broth microdilution method outlined in the Clinical and Laboratory Standards Institute Approved Standard M7-A7 (2006).

[8] = tested on: H. influenzae, β-lactamase positive, ampicillin-resistant; experiment: MIC90, broth microdilution (CLSI M7-A7), Table 4; assay type: cell-based; details: 25 isolates
Description: as §3

[9] = tested on: H. influenzae, β-lactamase positive; experiment: MIC90, broth microdilution (CLSI M7-A7), Table 4; assay type: cell-based; details: 53 isolates
Description: as §3

[10] = tested on: S. aureus, methicillin- and ciprofloxacin-resistant; experiment: MIC90, broth microdilution (CLSI M7-A7), Table 4; assay type: cell-based; details: 24 isolates
Description: as §3

[11] = tested on: S. aureus, methicillin-resistant and ciprofloxacin-sensitive; experiment: MIC90, broth microdilution (CLSI M7-A7), Table 4; assay type: cell-based; details: 25 isolates
Description: as §3

[12] = tested on: S. aureus, vancomycin-intermediately resistant; experiment: MIC90, broth microdilution (CLSI M7-A7), Table 4; assay type: cell-based; details: 23 isolates
Description: as §3

[13] = tested on: S. aureus, vancomycin-resistant; experiment: MIC90, broth microdilution (CLSI M7-A7), Table 4; assay type: cell-based; details: 3 isolates
Description: as §3

[14] = tested on: S. epidermidis, methicillin-resistant; experiment: MIC90, broth microdilution (CLSI M7-A7), Table 4; assay type: cell-based; details: 64 isolates
Description: as §3

[15] = tested on: S. pneumoniae, levofloxacin-resistant; experiment: MIC90, broth microdilution (CLSI M7-A7), Table 4; assay type: cell-based; details: 25 isolates
Description: as §3

[16] = tested on: S. pneumoniae, penicillin-intermediately resistant; experiment: MIC90, broth microdilution (CLSI M7-A7), Table 4; assay type: cell-based; details: 26 isolates
Description: as §3

[17] = tested on: S. pneumoniae, penicillin-resistant; experiment: MIC90, broth microdilution (CLSI M7-A7), Table 4; assay type: cell-based; details: 26 isolates
Description: as §3

[18] = tested on: Methicillin-Resistant S. aureus Isolates; experiment: In vitro anti-bacterial activity, fourth test, Table 5; assay type: cell-based, Staphylococcus aureus
Description: In a fourth test, the anti-bacterial activity of the compound having Formula IV was tested against some methicillin-resistant S. aureus bacteria strains and compared to the anti-bacterial activity of three commercially available antibiotics: nadifloxacin (“NDFX”), ofloxacin (“OFLX”), and sparfloxacin (“SPFX”).

[19] = tested on: Ofloxacin-resistant Enterobacteriaceae; experiment: organism not typed; assay type: cell-based; details: Ofloxacin-resistant Enterobacteriaceae, clinical isolates, fifth test
From the text: (§4) As disclosed above, most of these bacteria strains are also relevant to infections of the ear and upper respiratory tract.

[20] = tested on: Gentamicin-resistant Pseudomonas aeruginosa; experiment: In vitro anti-bacterial activity, resistant clinical isolates, fifth test, Table 6; assay type: cell-based
From the text: as §4

[21] = tested on: Gentamicin-resistant Staphylococcus aureus; experiment: as above; assay type: cell-based
From the text: as §4

[22] = tested on: Ofloxacin-resistant Staphylococcus aureus; experiment: as above; assay type: cell-based
From the text: as §4

[23] = tested on: Penicillin-resistant Streptococcus pneumoniae; experiment: as above; assay type: cell-based
From the text: as §4

[24] = tested on: S. aureus Clinical Isolates; experiment: In vitro activity against clinical isolates, sixth test, Table 7; assay type: cell-based; details: 49 isolates
[25] = tested on: S. pneumoniae Clinical Isolates; experiment: as above; assay type: cell-based; details: 78 isolates

`N[C@@H]1CCCCN(c2c(F)cc3c(=O)c(C(=O)O)cn(C4CC4)c3c2Cl)C1` [Compound IV] was tested, and the “MIC90 Geometric Mean” value [1] was “≦0.06 μg/ml”, the “MIC90 Range” value [1] was “≦0.06 μg/ml” and the “MIC90 Value” [1] was “≦0.06 μg/ml”. For the same molecule, the “MIC90 Geometric Mean” value [2] was 5.28 µg/mL (≈ 13.4 µM), the “MIC90 Range” value [2] was 0.5 to 32 µg/mL and the “MIC90 Value” [2] was 32 µg/mL (≈ 81.3 µM). For the same molecule, the “MIC90 Geometric Mean” value (GM-resistant S. aureus) was 0.65 µg/mL (≈ 1.65 µM), the “MIC90 Range” value (GM-resistant S. aureus) was “≦0.006-8 μg/ml” and the “MIC90 Value” (GM-resistant S. aureus) was 4 µg/mL (≈ 10.2 µM). The “MIC90 Geometric Mean” value [3] was 11.3 µg/mL (≈ 28.7 µM), the “MIC90 Range” value [3] was 4 to 32 µg/mL and the “MIC90 Value” [3] was 16 µg/mL (≈ 40.6 µM). The “MIC90 Geometric Mean” value (OFLX-resistant S. aureus) was 2.14 µg/mL (≈ 5.43 µM), the “MIC90 Range” value (OFLX-resistant S. aureus) was 0.5 to 8 µg/mL and the “MIC90 Value” (OFLX-resistant S. aureus) was 8 µg/mL (≈ 20.3 µM). The “MIC90 Geometric Mean” value [4] was 0.10 µg/mL (≈ 0.254 µM), the “MIC90 Range” value [4] was “≦0.06-0.13 μg/ml” and the “MIC90 Value” [4] was 0.13 µg/mL (≈ 0.33 µM). The MIC90 ([5]; S. aureus (ATCC 33591)) was 0.025 µg/mL (≈ 0.0635 µM), the MIC90 ([5]; S. aureus (ATCC 33592)) was 0.012 µg/mL (≈ 0.0305 µM) and the MIC90 ([5]; S. aureus (ATCC 33593)) was 0.025 µg/mL (≈ 0.0635 µM). For the same molecule, the MIC90 ([5]; S. aureus (No. 395)) was 0.025 µg/mL (≈ 0.0635 µM), the MIC90 ([5]; S. aureus (No. 415)) was 0.012 µg/mL (≈ 0.0305 µM) and the MIC90 ([5]; S. aureus (No. 419)) was 0.025 µg/mL (≈ 0.0635 µM). It also gave an MIC90 ([5]; S. aureus (No. 420)) of 0.012 µg/mL (≈ 0.0305 µM), an MIC90 ([5]; S. aureus (No. 421)) of 0.025 µg/mL (≈ 0.0635 µM) and an MIC90 ([6]; S. aureus (ATCC 11632)) of 0.025 µg/mL (≈ 0.0635 µM). The MIC90 ([6]; S. aureus (ATCC 13301)) was 0.012 µg/mL (≈ 0.0305 µM), the “MIC90 Geometric Mean” value [7] was 4.595 µg/mL (≈ 11.7 µM) and the “MIC90 Value” [7] was >8 µg/mL. For the same molecule, the “MIC90 Geometric Mean” value [8] was 0.044 µg/mL (≈ 0.112 µM), the “MIC90 Range” value [8] was 0.015 to 0.25 µg/mL and the “MIC90 Value” [8] was 0.12 µg/mL (≈ 0.305 µM). For the same molecule, the “MIC90 Geometric Mean” value [9] was 0.027 µg/mL (≈ 0.0686 µM), the “MIC90 Range” value [9] was 0.015 to 0.06 µg/mL and the “MIC90 Value” [9] was 0.03 µg/mL (≈ 0.0762 µM). For the same molecule, the “MIC90 Geometric Mean” value [10] was 1.542 µg/mL (≈ 3.92 µM), the “MIC90 Range” value [10] was 0.5 to 8 µg/mL and the “MIC90 Value” [10] was 8 µg/mL (≈ 20.3 µM). The “MIC90 Geometric Mean” value [11] was 0.033 µg/mL (≈ 0.0838 µM), the “MIC90 Range” value [11] was 0.015 to 1 µg/mL and the “MIC90 Value” [11] was 0.06 µg/mL (≈ 0.152 µM). For the same molecule, the “MIC90 Geometric Mean” value [12] was 0.652 µg/mL (≈ 1.66 µM), the “MIC90 Range” value [12] was 0.03 to 2 µg/mL and the “MIC90 Value” [12] was 2 µg/mL (≈ 5.08 µM). The “MIC90 Geometric Mean” value [13] was 1.587 µg/mL (≈ 4.03 µM), the “MIC90 Range” value [13] was 1 to 4 µg/mL and the “MIC90 Geometric Mean” value [14] was 0.397 µg/mL (≈ 1.01 µM). The “MIC90 Value” [14] was 8 µg/mL (≈ 20.3 µM), the “MIC90 Geometric Mean” value [15] was 1.028 µg/mL (≈ 2.61 µM) and the “MIC90 Range” value [15] was 0.5 to 8 µg/mL. For the same molecule, the “MIC90 Value” [15] was 2 µg/mL (≈ 5.08 µM), the “MIC90 Geometric Mean” value [16] was 0.120 µg/mL (≈ 0.305 µM) and the “MIC90 Range” value [16] was 0.06 to 2 µg/mL. For the same molecule, the “MIC90 Value” [16] was 0.12 µg/mL (≈ 0.305 µM), the “MIC90 Geometric Mean” value [17] was 0.108 µg/mL (≈ 0.274 µM) and the “MIC90 Range” value [17] was 0.06 to 0.12 µg/mL. For the same molecule, the “MIC90 Value” [17] was 0.12 µg/mL (≈ 0.305 µM), the MIC90 ([18]; Staphylococcus aureus (ATCC 33591)) was 0.012 µg/mL (≈ 0.0305 µM) and the MIC90 ([18]; Staphylococcus aureus (ATCC 33592)) was 0.05 µg/mL (≈ 0.127 µM). The MIC90 ([18]; Staphylococcus aureus (ATCC 33593)) was 0.012 µg/mL (≈ 0.0305 µM), the MIC90 ([18]; Staphylococcus aureus (No. 395)) was 0.006 µg/mL (≈ 0.0152 µM) and the MIC90 ([18]; Staphylococcus aureus (No. 415)) was 0.05 µg/mL (≈ 0.127 µM). The MIC90 ([18]; Staphylococcus aureus (No. 419)) was 0.1 µg/mL (≈ 0.254 µM), the MIC90 ([18]; Staphylococcus aureus (No. 420)) was 0.1 µg/mL (≈ 0.254 µM) and the MIC90 ([18]; Staphylococcus aureus (No. 421)) was 0.2 µg/mL (≈ 0.508 µM). For the same molecule, the MIC90 [19] was 16 µg/mL (≈ 40.6 µM), the MIC90 [20] was 32 µg/mL (≈ 81.3 µM) and the MIC90 [21] was 4 µg/mL (≈ 10.2 µM). For the same molecule, the MIC90 [22] was 8 µg/mL (≈ 20.3 µM), the MIC90 [23] was 0.13 µg/mL (≈ 0.33 µM) and the “MIC90 Range” value [24] was 0.015 to 2 µg/mL. For the same molecule, the “MIC90 Value” [24] was 0.25 µg/mL (≈ 0.635 µM), the “MIC90 Range” value [25] was 0.03 to 0.12 µg/mL and the “MIC90 Value” [25] was 0.12 µg/mL (≈ 0.305 µM).
